Measurements as given in patent US8785457B2 (Cellzome Limited, priority 2009, dated 2014).
Where two headings read alike, the source gives them in different places.

Experiments:
[1] = system: S6RP serine-240/244 phosphorylation; assay: In vitro Phospho-S6 cellular assay (pS6RP S240/244) in HEK293T/17 cells; assay type: cell-based; settings: Homo sapiens, 2 hours, read-out: pS6 IC50
Excerpt: Activation of mTOR signaling results in phosphorylation of several downstream targets. In cells, mTOR exists in two different protein complexes. The mTOR Complex-1 (mTORC1) phosphorylates and activates S6 Kinase 1 (S6K1) and S6 Kinase 2 (S6K2) (also known as p70S6K) which then phosphorylate S6 Ribosomal Protein (S6RP) (also known as RPS6)3. S6RP is phosphorylated on serine 235, serine 236, serine 240 and serine 244 by both pS6K1 and pS6K2. The mTOR Complex-2 (mTORC2) phosphorylates AKT on serine 473 which activates the AKT signaling pathway.
The assay measures a test compound's inhibition of S6RP serine-240/244 phosphorylation and inhibition of Akt serine-473 phosphorylation in human embryonic kidney derived HEK293T/17 cells (ATCC CRL-11268).
The HEK293T/17 cell line is maintained in DMEM media (Invitrogen catalogue number 41965-039) supplemented with 10% FCS at 37° C. in a 5% CO2 humidified incubator.
Cells are seeded in 96-well plates at 40,000 cells/well (pS6RP S240/244 assay) or 80,000 cells/well (pAkt S473 assay) in 90 μl growth media (DMEM, 2% FCS). Plates are incubated for 1 hour in a humidified incubator to allow the cells to adhere. Cells are treated with 8 concentrations of test compounds or DMSO alone for controls (final DMSO concentration 0.1%) and incubated at 37° C. for 2 hours. Then 20 μl of 5× concentrated lysis buffer (750 mM NaCl, 100 mM Tris pH7.4, 5 mM ADTA, 5 mM EGTA, 5% Triton X-100) is added, plates are sealed and incubated for 15 minutes at 4° C. with gentle shaking. After cell lysis, 25 μl cell lysate is transferred to a MesoScale plate coated with an antibody to pS6RP Ser240/244 (MesoScale Discovery K150DGD-3) or an antibody to pAkt Ser 473 (MesoScale Discovery K151DGD-3). Plates have been blocked before by incubation with 150 μl MesoScale Discovery Blocking Solution-A for 1 hour at room temperature followed by washing with 150 μl 1× Tris wash buffer per well. After the transfer of the cell lysate to the MSD plate, the pS6RP (or pAkt) protein is captured on the coated antibody by incubation at room temperature for 1 hour with gentle shaking. After the capture step the plate is washed three times with 150 μl of 1× Tris wash buffer per well. Then 25 μl detection antibody conjugated with a Sulfo-Tag is added and incubated for 1 hour at room temperature with gentle shaking. Subsequently the antibody solution is removed and the plate is washed 3 times with 150 μl×Tris wash buffer per well and 150 μl Read buffer is added. The plates are analysed on a MSD 2400 Plate Reader (MesoScale Discovery). Data analysis is performed using nonlinear regression for a sigmoidal dose-response with a variable slope.

[2] = target: T1, DNA-dependent protein kinase (DNA-PK) (Homo sapiens, UniProt P78527); assay: kinobeads assay, DNA-PK; assay type: binding
T1 construct: endogenous in cells; host or cells: Jurkat, clone E6-1 (ATCC TIB-152) cell lysate
How it was run: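 IC50 values came from dose-response curves after test compound (1:3 series) competed with an immobilized phenylmorpholin-chromen affinity matrix for kinases in Jurkat lysate at 5 mg/mL protein. Eluted captured DNA-PK and PI3Kδ were measured by specific-antibody dot blot and infrared imaging. Buffer was Tris pH 7.4, NP40, MgCl2, NaCl, vanadate, DTT, NaF.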

[3] = kinobeads assay, Table 4, read-out: Inhibition values (IC50) DNA-PK
[4] = kinobeads assay, Table 6, read-out: Inhibition values (IC50) DNAPK
[5] = Further Kinobeads Data, read-out: DNAPK

T1 sequence (P78527 whole entry): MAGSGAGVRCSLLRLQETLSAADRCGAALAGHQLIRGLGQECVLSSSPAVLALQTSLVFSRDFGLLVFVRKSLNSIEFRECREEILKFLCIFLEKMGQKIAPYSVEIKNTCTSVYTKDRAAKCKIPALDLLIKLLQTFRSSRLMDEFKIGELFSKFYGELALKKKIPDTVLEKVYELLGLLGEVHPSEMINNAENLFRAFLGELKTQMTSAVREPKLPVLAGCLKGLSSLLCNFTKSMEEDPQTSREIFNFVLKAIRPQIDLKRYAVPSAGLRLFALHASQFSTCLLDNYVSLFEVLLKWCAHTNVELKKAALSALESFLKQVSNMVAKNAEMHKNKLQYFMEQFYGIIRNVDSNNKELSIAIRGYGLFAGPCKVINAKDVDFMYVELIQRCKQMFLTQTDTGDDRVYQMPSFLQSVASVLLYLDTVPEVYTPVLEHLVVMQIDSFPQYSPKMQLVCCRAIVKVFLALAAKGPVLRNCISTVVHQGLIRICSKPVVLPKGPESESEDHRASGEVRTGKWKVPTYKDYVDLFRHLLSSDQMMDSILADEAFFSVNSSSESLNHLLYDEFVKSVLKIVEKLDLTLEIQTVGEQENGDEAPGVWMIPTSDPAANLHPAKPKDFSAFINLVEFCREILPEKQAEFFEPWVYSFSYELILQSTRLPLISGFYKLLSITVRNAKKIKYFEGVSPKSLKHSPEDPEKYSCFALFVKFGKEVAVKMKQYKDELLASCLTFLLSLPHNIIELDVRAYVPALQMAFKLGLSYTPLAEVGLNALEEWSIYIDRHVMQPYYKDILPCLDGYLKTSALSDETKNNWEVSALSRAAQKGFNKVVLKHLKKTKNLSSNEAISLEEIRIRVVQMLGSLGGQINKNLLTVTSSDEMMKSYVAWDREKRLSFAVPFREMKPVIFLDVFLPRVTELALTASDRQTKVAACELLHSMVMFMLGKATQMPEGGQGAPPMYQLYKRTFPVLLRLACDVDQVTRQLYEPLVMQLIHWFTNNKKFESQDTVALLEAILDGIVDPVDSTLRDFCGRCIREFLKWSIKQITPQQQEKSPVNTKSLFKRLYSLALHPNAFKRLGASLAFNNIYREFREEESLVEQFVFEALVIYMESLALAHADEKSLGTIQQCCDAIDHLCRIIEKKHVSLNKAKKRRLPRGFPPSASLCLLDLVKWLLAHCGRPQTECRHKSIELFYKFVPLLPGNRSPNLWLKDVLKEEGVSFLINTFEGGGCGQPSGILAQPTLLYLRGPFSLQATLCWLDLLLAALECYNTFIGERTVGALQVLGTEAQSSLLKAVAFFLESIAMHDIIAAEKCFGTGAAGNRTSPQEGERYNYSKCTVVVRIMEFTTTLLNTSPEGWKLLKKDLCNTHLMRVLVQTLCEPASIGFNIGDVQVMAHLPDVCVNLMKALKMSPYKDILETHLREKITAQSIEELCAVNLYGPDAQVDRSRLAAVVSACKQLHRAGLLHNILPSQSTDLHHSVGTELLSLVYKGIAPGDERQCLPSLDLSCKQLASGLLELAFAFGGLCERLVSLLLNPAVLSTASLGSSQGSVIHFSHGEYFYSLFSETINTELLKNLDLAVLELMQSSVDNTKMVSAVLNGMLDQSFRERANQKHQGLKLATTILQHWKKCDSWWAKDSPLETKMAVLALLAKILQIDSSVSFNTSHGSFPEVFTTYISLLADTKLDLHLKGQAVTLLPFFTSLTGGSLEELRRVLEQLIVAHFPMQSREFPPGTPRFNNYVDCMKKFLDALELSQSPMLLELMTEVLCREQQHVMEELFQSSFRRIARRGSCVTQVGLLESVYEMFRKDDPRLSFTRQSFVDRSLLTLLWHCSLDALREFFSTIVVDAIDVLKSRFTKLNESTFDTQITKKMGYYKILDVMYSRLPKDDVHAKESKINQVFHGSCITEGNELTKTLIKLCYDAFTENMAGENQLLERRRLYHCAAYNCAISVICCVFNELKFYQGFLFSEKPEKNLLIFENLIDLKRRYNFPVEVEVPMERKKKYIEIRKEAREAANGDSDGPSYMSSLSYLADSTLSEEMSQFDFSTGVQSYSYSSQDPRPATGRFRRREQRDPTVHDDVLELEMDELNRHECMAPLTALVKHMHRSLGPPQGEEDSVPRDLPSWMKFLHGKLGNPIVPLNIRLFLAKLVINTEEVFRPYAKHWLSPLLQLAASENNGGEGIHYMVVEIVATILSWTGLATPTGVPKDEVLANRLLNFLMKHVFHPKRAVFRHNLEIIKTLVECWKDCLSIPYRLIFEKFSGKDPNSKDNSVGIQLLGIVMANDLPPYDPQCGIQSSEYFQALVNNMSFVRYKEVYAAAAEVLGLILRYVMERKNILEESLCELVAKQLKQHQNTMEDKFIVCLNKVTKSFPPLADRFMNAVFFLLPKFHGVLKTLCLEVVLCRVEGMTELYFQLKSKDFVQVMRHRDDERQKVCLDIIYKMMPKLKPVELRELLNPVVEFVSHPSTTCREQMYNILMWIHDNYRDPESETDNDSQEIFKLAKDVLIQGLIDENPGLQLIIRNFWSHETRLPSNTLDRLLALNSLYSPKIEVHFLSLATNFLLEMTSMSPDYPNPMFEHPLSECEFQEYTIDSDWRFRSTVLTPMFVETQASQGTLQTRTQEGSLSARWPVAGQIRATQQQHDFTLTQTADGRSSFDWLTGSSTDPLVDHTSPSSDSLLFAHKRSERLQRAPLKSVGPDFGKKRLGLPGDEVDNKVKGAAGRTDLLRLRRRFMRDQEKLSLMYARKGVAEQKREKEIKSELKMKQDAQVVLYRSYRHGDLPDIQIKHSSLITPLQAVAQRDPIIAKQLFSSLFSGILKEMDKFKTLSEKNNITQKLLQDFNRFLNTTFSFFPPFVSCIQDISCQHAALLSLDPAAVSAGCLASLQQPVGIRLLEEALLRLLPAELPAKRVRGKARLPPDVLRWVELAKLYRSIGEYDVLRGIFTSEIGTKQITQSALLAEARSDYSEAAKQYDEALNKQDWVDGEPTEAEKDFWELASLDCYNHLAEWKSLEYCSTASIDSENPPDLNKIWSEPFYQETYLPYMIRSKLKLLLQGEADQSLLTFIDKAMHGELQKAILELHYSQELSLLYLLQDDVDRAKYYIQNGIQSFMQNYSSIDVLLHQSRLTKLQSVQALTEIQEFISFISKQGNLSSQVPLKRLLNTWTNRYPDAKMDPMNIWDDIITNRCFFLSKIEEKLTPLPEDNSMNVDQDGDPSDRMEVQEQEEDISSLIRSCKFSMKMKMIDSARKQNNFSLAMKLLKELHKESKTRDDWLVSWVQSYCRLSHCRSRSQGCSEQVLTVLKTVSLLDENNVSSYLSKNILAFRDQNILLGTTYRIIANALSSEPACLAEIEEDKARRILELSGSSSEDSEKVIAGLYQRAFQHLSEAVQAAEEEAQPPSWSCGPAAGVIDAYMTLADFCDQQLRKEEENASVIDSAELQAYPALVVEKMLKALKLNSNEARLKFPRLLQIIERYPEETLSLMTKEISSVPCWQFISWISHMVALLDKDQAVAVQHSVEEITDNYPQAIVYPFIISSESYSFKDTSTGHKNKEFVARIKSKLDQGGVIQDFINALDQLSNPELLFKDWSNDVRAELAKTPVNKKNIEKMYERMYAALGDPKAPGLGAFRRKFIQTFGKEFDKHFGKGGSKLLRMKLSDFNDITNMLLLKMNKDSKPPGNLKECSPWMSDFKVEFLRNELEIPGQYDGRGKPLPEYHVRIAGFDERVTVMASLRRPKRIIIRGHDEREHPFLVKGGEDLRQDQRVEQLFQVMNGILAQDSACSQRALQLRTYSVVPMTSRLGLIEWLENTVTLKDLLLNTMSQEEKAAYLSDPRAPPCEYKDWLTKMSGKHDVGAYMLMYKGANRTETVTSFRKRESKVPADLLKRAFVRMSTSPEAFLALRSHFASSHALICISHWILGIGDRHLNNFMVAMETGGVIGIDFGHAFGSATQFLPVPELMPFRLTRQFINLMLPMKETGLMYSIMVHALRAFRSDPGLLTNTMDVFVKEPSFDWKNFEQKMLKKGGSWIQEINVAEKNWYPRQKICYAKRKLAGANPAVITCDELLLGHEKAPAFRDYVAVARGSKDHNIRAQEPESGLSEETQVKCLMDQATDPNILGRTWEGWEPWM

SMILES	IC50 [1] [nM]	IC50 [2, 3] [nM]	IC50 [2, 4] [nM]	IC50 [2, 5] [nM]
C[C@H]1COCCN1c1nc(-c2ccc(NC(=O)NC3CC3)cc2)nc2c1CN(CC1CC1)C2 [Example 30]	170	> 10000	> 10000	
C[C@@H]1COCCN1c1nc(-c2ccc(NC(=O)NC3CC3)cc2F)nc2c1CN(C=O)C2 [Example 190, (R)-1-cyclopropyl-3-(3-fluoro-4-(6-formyl-4-(3-methylmorpholino)-6,7-dihydro-5H-pyrrolo[3,4-d]pyrimidin-2-yl)phenyl)urea]	351			> 10000
C[C@H]1COCCN1c1nc(-c2ccc(NC(=O)NC3CC3)cc2)nc2c1CN(C(=O)C1CC1)C2 [Example 17, (S)-1-(4-(6-(cyclopropanecarbonyl)-4-(3-methylmorpholino)-6,7-dihydro-5H-pyrrolo[3,4-d]pyrimidin-2-yl)phenyl)-3-cyclopropylurea]	142	> 10000	> 10000	
C[C@H]1COCCN1c1nc(-c2ccc(NC(=O)NC3CC3)cc2)nc2c1CCNC2 [Example 15, (S)-1-cyclopropyl-3-(4-(4-(3-methylmorpholino)-5,6,7,8-tetrahydropyrido[3,4-d]pyrimidin-2-yl)phenyl)urea]	238	> 10000	> 10000	
CCNC(=O)Nc1ccc(-c2nc3c(c(N4CCOC[C@@H]4C)n2)CCNC3)cc1 [Example 13, (S)-1-ethyl-3-(4-(4-(3-methylmorpholino)-5,6,7,8-tetrahydropyrido[3,4-d]pyrimidin-2yl)phenyl)urea]	240	> 10000	> 10000	
CCNC(=O)Nc1ccc(-c2nc3c(c(N4CCOC[C@@H]4C)n2)CCN(C(=O)C(C)C)C3)cc1 [Example 57, (S)-1-ethyl-3-(4-(7-isobutyryl-4-(3-methylmorpholino)-5,6,7,8-tetrahydropyrido[3,4-d]pyrimidin-2-yl)phenyl)urea]	32	> 10000	> 10000	
CC(=O)N1Cc2nc(-c3ccc(NC(=O)NC4CC4)cc3F)nc(N3CCOC[C@@H]3C)c2C1 [Example 155, (S)-1-(4-(6-acetyl-4-(3-methylmorpholino)-6,7-dihydro-5H-pyrrolo[3,4-d]pyrimidin-2-yl)-3-fluorophenyl)-3-cyclopropylurea]	815			> 10000
CCNC(=O)Nc1ccc(-c2nc3c(c(N4CCOCC4)n2)CN(C(=O)OC)C3)c(F)c1 [Example 162, methyl 2-(4-(3-ethylureido)-2-fluorophenyl)-4-morpholino-5H-pyrrolo[3,4-d]pyrimidine-6(7H)-carboxylate]	114			> 10000
C[C@H]1COCCN1c1nc(-c2ccc(NC(=O)NC3CC3)cc2)nc2c1CNCC2 [Example 11, (S)-1-cyclopropyl-3-(4-(4-(3-methylmorpholino)-5,6,7,8-tetrahydropyrido[4,3-d]pyrimidin-2-yl)phenyl)urea]	588	> 10000	> 10000	
C[C@H]1COCCN1c1nc(-c2ccc(NC(N)=O)cc2)nc2c1CN(CC1CC1)C2 [Example 48, (S)-1-(4-(6-(cyclopropylmethyl)-4-(3-methylmorpholino)-6,7-dihydro-5H-pyrrolo[3,4-d]pyrimidin-2-yl)phenyl)urea]	698	> 10000	> 10000	
CC(C)C(=O)N1Cc2nc(-c3ccc(NC(=O)NC4CC4)cc3F)nc(N3CCOC[C@@H]3C)c2C1 [Example 174, (S)-1-cyclopropyl-3-(3-fluoro-4-(6-isobutyryl-4-(3-methylmorpholino)-6,7-dihydro-5H-pyrrolo[3,4-d]pyrimidin-2-yl)phenyl)urea]	545			> 10000
C[C@@H]1COCCN1c1nc(-c2ccc(NC(=O)NC3CC3)cc2F)nc2c1CN(C(=O)C1CC1)C2 [Example 188, (R)-1-(4-(6-(cyclopropanecarbonyl)-4-(3-methylmorpholino)-6,7-dihydro-5H-pyrrolo[3,4-d]pyrimidin-2-yl)-3-fluorophenyl)-3-cyclopropylurea]	218			> 10000
C[C@H]1COCCN1c1nc(-c2ccc(NC(=O)Nc3ccc(F)cc3)cc2)nc2c1CN(C)C2 [Example 52, (S)-1-(4-fluorophenyl)-3-(4-(6-methyl-4-(3-methylmorpholino)-6,7-dihydro-5H-pyrrolo[3,4-d]pyrimidin-2-yl)phenyl)urea]	90	> 10000	> 10000	
COC(=O)N1Cc2nc(-c3ccc(NC(=O)NC4CC4)cc3F)nc(N3CCOC[C@@H]3C)c2C1 [Example 146, (S)-methyl 2-(4-(3-cyclopropylureido)-2-fluorophenyl)-4-(3-methylmorpholino)-5H-pyrrolo[3,4-d]pyrimidine-6(7H)-carboxylate]	96			> 10000
C[C@H]1COCCN1c1nc(-c2ccc(NC(=O)NC3CC3)cc2)nc2c1CN(C)C2 [Example 38, (S)-1-cyclopropyl-3-(4-(6-methyl-4-(3-methylmorpholino)-6,7-dihydro-5H-pyrrolo[3,4-d]pyrimidin-2-yl)phenyl)urea]	170	> 10000	> 10000	
CCOC(=O)N1Cc2nc(-c3ccc(NC(=O)NC4CC4)cc3F)nc(N3CCOC[C@H]3C)c2C1 [Example 179, (R)-ethyl 2-(4-(3-cyclopropylureido)-2-fluorophenyl)-4-(3-methylmorpholino)-5H-pyrrolo[3,4-d]pyrimidine-6(7H)-carboxylate]	63			> 10000
CCNC(=O)Nc1ccc(-c2nc3c(c(N4CCOC[C@@H]4C)n2)CN(C(=O)c2ccc(F)cc2)C3)cc1 [Example 19, (S)-1-ethyl-3-(4-(6-(4-fluorobenzoyl)-4-(3-methylmorpholino)-6,7-dihydro-5H-pyrrolo[3,4-d]pyrimidin-2-yl)phenyl)urea]	135	> 10000	> 10000	
CCNC(=O)Nc1ccc(-c2nc3c(c(N4CCOC[C@@H]4C)n2)CN(C)C3)c(F)c1 [Example 160, (S)-1-ethyl-3-(3-fluoro-4-(6-methyl-4-(3-methylmorpholino)-6,7-dihydro-5H-pyrrolo[3,4-d]pyrimidin-2-yl)phenyl)urea]	355			> 10000
CCNC(=O)Nc1ccc(-c2nc3c(c(N4CCOC[C@@H]4C)n2)CN(CC)C3)cc1 [Example 39, (S)-1-ethyl-3-(4-(6-ethyl-4-(3-methylmorpholino)-6,7-dihydro-5H-pyrrolo[3,4-d]pyrimidin-2-yl)phenyl)urea]	140	> 10000	> 10000	
CCNC(=O)Nc1ccc(-c2nc3c(c(N4CCOC[C@@H]4C)n2)CCNC3)c(F)c1 [Example 164, (S)-1-ethyl-3-(3-fluoro-4-(4-(3-methylmorpholino)-5,6,7,8-tetrahydropyrido[3,4-d]pyrimidin-2-yl)phenyl)urea]	510			> 10000
CCCNC(=O)Nc1ccc(-c2nc3c(c(N4CCOC[C@@H]4C)n2)CN(CC2CC2)C3)cc1 [Example 49, (S)-1-(4-(6-(cyclopropylmethyl)-4-(3-methylmorpholino)-6,7-dihydro-5H-pyrrolo[3,4-d]pyrimidin-2-yl)phenyl)-3-propylurea]	306	> 10000	> 10000	
C[C@H]1COCCN1c1nc(-c2ccc(NC(=O)NC3CC3)cc2)nc2c1CCN(CC1CC1)C2 [Example 40, (S)-1-cyclopropyl-3-(4-(7-(cyclopropylmethyl)-4-(3-methylmorpholino)-5,6,7,8-tetrahydropyrido[3,4-d]pyrimidin-2-yl)phenyl)urea]	70	> 10000	> 10000	
